# Test results taken from US20110105477A1, “COMPOSITIONS AND METHODS RELATING TO HIV PROTEASE INHIBITION” (The Regents of the University of Michigan, priority 2007, published 2011).
# Molecular target: HIV-1 protease (Human immunodeficiency virus type 1 group M subtype B, UniProt P04585)
# Test: HIV protease inhibition assay
# Assay type: biochemical
# Settings: not given
row,SMILES,activity in HIVp inhibition assay (in words)
1,CC1=CC(C)(C)Nc2ccc(OC(=O)c3ccccc3Br)cc21 [Compound 3],active

# Same assay, conditions: HIVp inhibition
row,SMILES,IC50 [µM]
1,COc1ccc(C(=O)Oc2ccc3c(c2)C(C)=CC(C)(C)N3)cc1 [Compound 2],18

# Same assay, conditions: remaining HIV-1 protease activity at 150 μM compound
row,SMILES,Remain Activity [%]
1,CC1=CC(C)(C)Nc2ccc(OC(=O)c3sc4cc([N+](=O)[O-])ccc4c3Cl)cc21,56.93
2,CC1=CC(C)(C)Nc2ccc(OC(=O)c3cccnc3)cc21,58.86
3,COc1cc(OC)cc(C(=O)Oc2ccc3c(c2)C(C)=CC(C)(C)N3)c1,59.22
4,CC1=CC(C)(C)Nc2ccc(OC(=O)c3ccc4c(c3)OCO4)cc21,63.58
5,CC1=CC(C)(C)Nc2ccc(OC(=O)c3cccs3)cc21,64.08
6,CC1=CC(C)(C)Nc2ccc(OC(=O)c3cccc4ccccc34)cc21,65.34
7,CC1=CC(C)(C)Nc2ccc(OC(=O)c3ccco3)cc21,69.67
8,CC1=CC(C)(C)Nc2ccc(OC(=O)c3cccc([N+](=O)[O-])c3)cc21,73.01
9,O=C1c2cccc([N+](=O)[O-])c2C(=O)N1c1ccc2[nH]c(=S)sc2c1,36.93
10,O=C1[C@H]2CCCC[C@H]2C(=O)N1c1ccc2[nH]c(=S)sc2c1,51.9
11,O=C(Nc1ccc2[nH]c(=S)sc2c1)c1ccccc1,65.14
12,Cc1cc(=O)n2nc(NCc3cccs3)nc2[nH]1,63.59
13,Cc1[nH]c2nc(NCc3cccc(Br)c3)nn2c(=O)c1Cl,71.2
14,Cc1cc(=O)n2nc(N3C(=O)[C@H]4CCCC[C@H]4C3=O)nc2[nH]1,67.49
15,O=c1c2c([nH]c3nc(COc4ccccc4)nn13)CCC2,57.77
16,CCOc1ccccc1CNc1nc2[nH]c3c(c(=O)n2n1)CCC3,75.44
17,O=C(Nc1ccc(F)cc1F)c1cc2n(n1)[C@H](C(F)(F)F)[C@H]1CCCC[C@H]1N2,64.91
18,CC1=NNc2nc3c(c(=O)n(Cc4ccccc4)c(=O)n3C)n2C1,65.08
19,CC1=CC(C)(C)Nc2ccc(OC(=O)c3ccccc3Br)cc21 [drawing 433],65.33
